Key:
Assay type in all cases: physicochemical
[1] = Cumulative in vitro dissolution of felodipine and metoprolol (Example 1 tablet), USP dissolution apparatus No. 2, 50 rpm, pH 6.5 with 1% sodium dodecylsulphate; details: pH 6.5, 1% sodium dodecylsulphate
Procedure: Cumulative in vitro dissolution of felodipine and metoprolol in
a phosphate buffer of pH 6.5 with 1% sodium dodecylsulphate.
Method: USP dissolution apparatus No. 2, 50 rpm.

[2] = Cumulative in vitro dissolution of nifedipine and metoprolol (Example 2 tablet), USP dissolution apparatus No. 2, 100 rpm, pH 6.5 with 1% sodium dodecylsulphate; details: pH 6.5, 1% sodium dodecylsulphate
[3] = Cumulative in vitro dissolution of metoprolol (Reference example B tablet), USP dissolution apparatus No. 2, 50 rpm, phosphate buffer pH 6.8; details: phosphate buffer pH 6.8, 50 rpm
From the text: The dissolution rate in vitro from this tablet is shown in Table 3. |Cumulative in vitro dissolution of metoprolol in a phosphate buffer |pH 6.8. |Method: […]

Row | SMILES | Percent released over time (h) ([1]; 0 h) | Percent released over time (h) ([1]; 2 h) | Percent released over time (h) ([1]; 4 h) | Percent released over time (h) ([1]; 8 h) | Percent released over time (h) ([1]; 12 h) | Percent released over time (h) ([1]; 16 h) | Percent released over time (h) ([1]; 20 h) | Percent released over time (h) ([2]; 0 h) | Percent released over time (h) ([2]; 2 h) | Percent released over time (h) ([2]; 4 h) | Percent released over time (h) ([2]; 8 h) | Percent released over time (h) ([2]; 12 h) | Percent released over time (h) ([2]; 16 h) | Percent released over time (h) ([2]; 20 h) | Percent released over time (h) ([3]; 0 h) | Percent released over time (h) ([3]; 1 h) | Percent released over time (h) ([3]; 4 h) | Percent released over time (h) ([3]; 8 h) | Percent released over time (h) ([3]; 12 h) | Percent released over time (h) ([3]; 20 h)
1 | CCOC(=O)C1=C(C)NC(C)=C(C(=O)OC)C1c1cccc(Cl)c1Cl (stereo not drawn) [felodipine, 4-(2,3-dichlorophenyl)-1,4-dihydro-2,6-dimethyl-3,5-pyridinedicarboxylic acid ethyl methyl ester] | 0% | 14% | 32% | 64% | 88% | 96% | 98% | – | – | – | – | – | – | – | – | – | – | – | – | –
2 | COCCc1ccc(OCC(O)CNC(C)C)cc1 (stereo not drawn) [metoprolol] | 0% | 5% | 16% | 39% | 65% | 86% | 95% | 0% | 6% | 16% | 34% | 50% | 62% | 75% | 0% | 23% | 59% | 86% | 99% | 100%
